Experiment [1] has as its system recombinant C. thermophilum eIF2Bα. Details: method as in PMID 26384431. To be noted: ITC; cited from earlier work. On the technique in general: Isothermal titration calorimetry measures the heat released or taken up as one component is titrated into another.
Another experiment deals with T1, eIF2Bα (Homo sapiens, UniProt Q14232).
T1 construct: made in house; host or cells: E. coli BL21(DE3)
T1 sequence (Q14232 1-305): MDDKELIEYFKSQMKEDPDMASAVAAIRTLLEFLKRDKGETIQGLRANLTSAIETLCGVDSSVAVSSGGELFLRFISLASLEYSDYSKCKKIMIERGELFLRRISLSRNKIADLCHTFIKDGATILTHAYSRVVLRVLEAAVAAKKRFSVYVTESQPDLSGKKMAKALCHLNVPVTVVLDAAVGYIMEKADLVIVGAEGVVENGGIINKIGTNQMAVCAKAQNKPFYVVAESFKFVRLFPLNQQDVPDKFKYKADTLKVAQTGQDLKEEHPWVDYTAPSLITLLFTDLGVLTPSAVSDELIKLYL
Kind of experiment: Differential scanning fluorimetry (Protein Thermal Shift), eIF2Bα Tm. Type of experiment: binding. Conditions: individual replicates Rep 1-4, control without metabolite about 64.1. On the procedure: The effect of metabolite binding on eIF2Bα Tm was assessed using the Protein Thermal Shift assay (Thermo Fisher), following manufacturer’s instructions. Briefly, reaction conditions for each 20 μL reaction were: 1.1 μg (1.5 μM) of eIF2Bα, 5 μl Thermal Shift buffer, 1X Thermal Shift dye, and metabolites in dose response. Reactions were run in 384-well format on a QuantStudio 6 Flex instrument (Thermo Fisher). The resulting melt curves were analyzed using Protein Thermal Shift Software, and eIF2Bα Tms for each condition were calculated by fitting to the Boltzmann function.

In experiment [2] the target is T2, recombinant eIF2B(βδγε) ± eIF2Bα2 (Homo sapiens, UniProt P49770+Q14232+Q9UI10).
T2 construct: made in house; host or cells: eIF2Bα: E. coli BL21(DE3)
Kind of experiment: Size-exclusion chromatography of recombinant eIF2B(βδγε) with or without eIF2Bα. The experiment is classed as biochemical. To be noted: SEC, recombinant eIF2B(βδγε) + eIF2Bα2; 500 nM ISRIB, 200 μM F6P. As for the experimental part:
(§1) Purified proteins were thawed and centrifuged at 20,000 × g, 10 min, 4 °C to remove any potential precipitate. Concentrations of eIF2B(βδγε) and eIF2Bα were normalized to 2 μM and 2.4 μM, respectively. 0.2 mL of each mixture was injected onto a Superose 6 Increase 10/300 column connected to an AKTA Pure 25 FPLC system (GE Healthcare). The system was run at 0.5 mL/min for 1 h using 25 mM HEPES, 200 mM KCl, 2 mM MgCl2, 1 mM DTT, pH 7.5 as the mobile phase. For conditions with ISRIB, the protein samples and mobile phase were supplemented with 500 nM ISRIB. For conditions with F6P, the protein samples and mobile phase were supplemented with 200 μM F6P. UV280 measurements were obtained directly by the instrument.

Experiment [3] deals with T3, recombinant eIF2B(βδγε) ± eIF2Bα2 (Homo sapiens, UniProt P49770+Q9UI10).
T3 construct: made in house; host or cells: eIF2Bα: E. coli BL21(DE3)
The experiment is described as above. To be noted: SEC, recombinant eIF2B(βδγε); 500 nM ISRIB, 200 μM F6P. Type of experiment: biochemical. On the procedure:
as §1

Experiment [4] concerns the target T4, phospho-eIF2α binding to eIF2B (Homo sapiens, UniProt P49770+Q14232+Q9UI10).
T4 construct: endogenous in cells; host or cells: HEK293T with FLAG knock-in at the endogenous eIF2Bβ locus, treated with thapsigargin; lysate, anti-FLAG IP
The experiment in a line: Phospho-eIF2α co-immunoprecipitation with FLAG-tagged eIF2B. Conditions: lysate of thapsigargin-treated HEK293T eIF2Bβ-FLAG cells; ligand 2 h at 4 °C. As for the experimental part:
HEK293T cells endogenously expressing eIF2Bβ with a C-terminal FLAG tag were maintained in DMEM High Glucose (Corning CellGro) supplemented with 10% FBS (Gibco) and antibiotic-antimycotic (Gibco). Upon reaching 90% confluency, cells were treated with either DMSO or 100 nM thapsigargin (Sigma) for 4 h. Cells were harvested and lysed in 25 mM HEPES, 150 mM KCl, 1% NP-40, 1 mM EDTA, pH 7.4 + Complete protease inhibitor cocktail (Roche) and PhosStop (Roche) on ice for 20 min. Lysates were cleared by centrifugation at 18,000 × g, 20 min, 4 °C, and transferred to Eppendorf tubes containing anti-FLAG M2 magnetic beads (Sigma). Mixtures were incubated overnight at 4 °C. To test the effect of ligands, these were added to the mixtures and incubated for an additional 2 h at 4 °C. Beads were washed three times with lysis buffer, eluted with 1× LDS buffer (Invitrogen), and subjected to SDS-PAGE followed by Western Blot with the indicated antibodies.

In experiment [5] the target is T5, eIF2B in WT HEK293T lysate (Homo sapiens, UniProt P49770+Q14232+Q9UI10).
T5 construct: endogenous in cells; host or cells: HEK293T (wild type) lysate
The experiment in a line: GEF activity assay with WT HEK293T lysate. Type of experiment: biochemical. As for the experimental part:
(§2) Bodipy-FL-GDP-loaded eIF2 was used as a substrate for recombinant eIF2B. The assay was performed in 384-well plates. Reactions were read on a SpectraMax i3x plate reader (Molecular Devices) using the instrument’s Softmax Pro software with the following parameters: plate temperature = 25 °C; excitation wavelength = 485 nm (15 nm width); emission wavelength = 535 nm (25 nm width); read duration = 30 min at 45 s intervals. Data were analyzed in Prism. GDP release half-lives were calculated by fitting single-exponential decay curves.
(§3) For unbiased screening, MIDAS metabolite libraries at 10 mM stock concentration were dispensed into wells of the assay plate using an Echo Acoustic Liquid Handler (Labcyte). In a final assay volume of 10 μL/well, the following conditions were kept constant: 25 nM Bodipy-FL-GDP-loaded eIF2, 4 nM phospho-eIF2, 0.1 mM GDP, 1 mg/mL BSA, 1 nM eIF2B, 10 μM metabolite. A single well was run for each metabolite. For targeted experiments with recombinant wild-type and mutant eIF2Bα, the following conditions were used: 50 nM Bodipy-FL-GDP-loaded eIF2, 0.1 mM GDP, 1 mg/ml BSA, 20 nM eIF2B. For targeted experiments with HEK293T lysates, the following conditions were used: 50 nM Bodipy-FL-GDP-loaded eIF2, 0.1 mM GDP, 1 mg/ml BSA, 0.1 or 0.3 mg/ml lysates.

In experiment [6] the target is T6, eIF2B decamer in eIF2Bα^E198K HEK293T lysate (Homo sapiens, UniProt P49770+Q14232+Q9UI10, E198K).
T6 construct: endogenous in cells; host or cells: HEK293T, CRISPR knock-in eIF2Bα E198K (homozygous), lysate
The experiment in a line: Sucrose gradient centrifugation, eIF2B complex assembly, eIF2Bα E198K HEK293T lysate. The experiment is classed as biochemical. On the procedure:
(§4) WT or eIF2Bα mutant HEK293T cells were harvested and lysed in 50 mM HEPES, 400 mM KCl, 1 mM DTT, 4 mM Mg(OAc)2, pH 7.5 + 0.5% Triton-X-100 + EDTA-free protease inhibitor cocktail (Roche) on ice for 30 min. Lysates were cleared by centrifugation at 48,000 × g, 4 °C for 30 min. 100 μL of each cleared lysate was loaded onto a 5–20% sucrose gradient prepared in a 13 × 51 mm ultracentrifuge tube using a Gradient Station (Biocomp) and centrifuged in a SW55 Ti rotor at 152,000 × g, 4 °C for 12 h. After centrifugation, 24 × 200 μL fractions were manually collected from the top to bottom of each gradient. Each fraction was subjected to methanol/chloroform precipitation and SDS-PAGE followed by Western Blot with the indicated antibodies. Blots were imaged on a ChemiDoc MP (Bio-Rad), and band intensities were quantified using the instrument’s Image Lab software. Each value was then divided by total intensity obtained across all fractions to determine percent enrichment of each subunit in each fraction.

The target of experiment [7] is T7, eIF2B in eIF2Bα^E198K HEK293T lysate (Homo sapiens, UniProt P49770+Q14232+Q9UI10, E198K).
T7 construct: endogenous in cells; host or cells: HEK293T, CRISPR knock-in eIF2Bα E198K (homozygous), lysate
Kind of experiment: GEF activity assay with eIF2Bα E198K HEK293T lysate. The experiment is classed as biochemical. On the procedure: as §2, §3

A further experiment addresses T8, eIF2Bα^V183F (Homo sapiens, UniProt Q14232, V183F).
T8 construct: made in house; host or cells: E. coli BL21(DE3)
T8 sequence (Q14232 1-305 V183F): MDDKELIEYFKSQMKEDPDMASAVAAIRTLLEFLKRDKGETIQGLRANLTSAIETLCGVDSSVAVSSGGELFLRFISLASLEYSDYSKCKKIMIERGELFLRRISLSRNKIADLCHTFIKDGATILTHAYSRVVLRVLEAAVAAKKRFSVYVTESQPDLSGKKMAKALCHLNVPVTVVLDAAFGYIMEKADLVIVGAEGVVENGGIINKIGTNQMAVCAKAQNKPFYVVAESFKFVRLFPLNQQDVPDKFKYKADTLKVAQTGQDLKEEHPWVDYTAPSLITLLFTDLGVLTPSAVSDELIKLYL
The experiment in a line: Size-exclusion chromatography of recombinant eIF2Bα V183F, alone or with eIF2B(βδγε). The experiment is classed as biochemical. Conditions: SEC, eIF2Bα V183F alone. On the procedure:
as §1

For experiment [8], the target named is T9, eIF2B decamer in WT HEK293T lysate (Homo sapiens, UniProt P49770+Q14232+Q9UI10).
T9 construct: endogenous in cells; host or cells: HEK293T (wild type) lysate
Kind of experiment: Sucrose gradient centrifugation, eIF2B complex assembly, WT HEK293T lysate. Type of experiment: biochemical. To be noted: 400 mM KCl, 5–20% sucrose gradient. On the procedure: as §4

The target of experiment [9] is T10, eIF2B decamer in eIF2Bα^V183F HEK293T lysate (Homo sapiens, UniProt P49770+Q14232+Q9UI10, V183F).
T10 construct: endogenous in cells
The experiment in a line: Sucrose gradient centrifugation, eIF2B complex assembly, eIF2Bα V183F HEK293T lysate. To be noted: 500 nM ISRIB, 200 μM F6P. Type of experiment: biochemical. As for the experimental part: as §4

Where “and” joins values, the source holds several entries; their conditions need not be identical. Equal entries are not always repeated.

T5 sequence (P49770 whole entry, one chain of several): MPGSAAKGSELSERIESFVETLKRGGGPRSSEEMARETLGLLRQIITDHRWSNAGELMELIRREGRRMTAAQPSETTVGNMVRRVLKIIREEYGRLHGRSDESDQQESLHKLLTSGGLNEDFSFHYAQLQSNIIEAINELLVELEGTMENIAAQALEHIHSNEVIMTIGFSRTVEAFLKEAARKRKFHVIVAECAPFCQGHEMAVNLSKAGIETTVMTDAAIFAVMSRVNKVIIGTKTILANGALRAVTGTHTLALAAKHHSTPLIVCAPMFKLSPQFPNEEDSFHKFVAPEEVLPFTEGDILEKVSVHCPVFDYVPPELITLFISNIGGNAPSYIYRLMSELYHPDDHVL
T5 sequence (Q9UI10 whole entry, one chain of several): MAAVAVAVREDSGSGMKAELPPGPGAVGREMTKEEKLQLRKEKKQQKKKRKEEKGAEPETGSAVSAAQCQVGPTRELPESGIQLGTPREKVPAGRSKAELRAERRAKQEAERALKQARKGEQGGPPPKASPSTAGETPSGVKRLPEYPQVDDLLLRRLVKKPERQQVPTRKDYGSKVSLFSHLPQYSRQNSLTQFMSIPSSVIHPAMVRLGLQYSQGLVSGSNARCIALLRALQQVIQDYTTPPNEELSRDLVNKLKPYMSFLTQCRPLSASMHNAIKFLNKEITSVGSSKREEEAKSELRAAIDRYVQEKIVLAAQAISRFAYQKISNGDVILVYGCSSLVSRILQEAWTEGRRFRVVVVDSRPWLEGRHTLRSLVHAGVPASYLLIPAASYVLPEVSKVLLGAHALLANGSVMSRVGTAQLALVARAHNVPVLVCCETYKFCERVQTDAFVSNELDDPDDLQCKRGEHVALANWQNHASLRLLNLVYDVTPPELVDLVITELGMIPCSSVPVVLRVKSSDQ
T5 sequence (Q9NR50 whole entry partner, one chain of several): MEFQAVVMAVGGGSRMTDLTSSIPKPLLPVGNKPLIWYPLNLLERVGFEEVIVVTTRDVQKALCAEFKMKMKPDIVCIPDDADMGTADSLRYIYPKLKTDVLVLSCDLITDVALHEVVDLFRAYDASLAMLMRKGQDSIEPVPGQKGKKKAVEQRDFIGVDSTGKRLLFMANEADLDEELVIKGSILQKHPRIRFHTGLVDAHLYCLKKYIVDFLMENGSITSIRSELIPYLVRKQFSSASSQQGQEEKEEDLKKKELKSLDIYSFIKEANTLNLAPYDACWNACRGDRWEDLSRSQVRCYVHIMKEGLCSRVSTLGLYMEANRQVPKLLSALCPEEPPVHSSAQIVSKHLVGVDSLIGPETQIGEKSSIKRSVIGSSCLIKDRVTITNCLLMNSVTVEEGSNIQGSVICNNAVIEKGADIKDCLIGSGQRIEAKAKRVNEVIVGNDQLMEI
T5 sequence (Q13144 whole entry partner, one chain of several): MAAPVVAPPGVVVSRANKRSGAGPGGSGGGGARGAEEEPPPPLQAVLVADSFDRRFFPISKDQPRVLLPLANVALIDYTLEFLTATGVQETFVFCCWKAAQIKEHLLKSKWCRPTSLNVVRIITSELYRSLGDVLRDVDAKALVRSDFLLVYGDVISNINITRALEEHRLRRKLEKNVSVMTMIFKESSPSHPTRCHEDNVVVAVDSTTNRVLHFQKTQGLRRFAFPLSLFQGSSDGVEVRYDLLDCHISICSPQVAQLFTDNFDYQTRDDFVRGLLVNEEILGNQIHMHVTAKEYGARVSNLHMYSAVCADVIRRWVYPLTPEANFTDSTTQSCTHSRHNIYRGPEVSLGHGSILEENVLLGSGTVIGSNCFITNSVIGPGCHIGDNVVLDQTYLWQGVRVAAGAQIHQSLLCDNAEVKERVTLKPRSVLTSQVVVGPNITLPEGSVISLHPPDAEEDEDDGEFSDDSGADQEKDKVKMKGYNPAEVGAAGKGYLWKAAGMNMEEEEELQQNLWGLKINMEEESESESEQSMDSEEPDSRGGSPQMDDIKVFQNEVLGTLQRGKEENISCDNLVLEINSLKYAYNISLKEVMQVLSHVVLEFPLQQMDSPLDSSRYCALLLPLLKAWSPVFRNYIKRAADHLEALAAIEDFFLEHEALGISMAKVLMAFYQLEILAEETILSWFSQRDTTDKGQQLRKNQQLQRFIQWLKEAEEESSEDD
T2 sequence (P49770 whole entry, one chain of several): as the sequence (P49770 whole entry, one chain of several) above
T2 sequence (Q9UI10 2-523, one chain of several): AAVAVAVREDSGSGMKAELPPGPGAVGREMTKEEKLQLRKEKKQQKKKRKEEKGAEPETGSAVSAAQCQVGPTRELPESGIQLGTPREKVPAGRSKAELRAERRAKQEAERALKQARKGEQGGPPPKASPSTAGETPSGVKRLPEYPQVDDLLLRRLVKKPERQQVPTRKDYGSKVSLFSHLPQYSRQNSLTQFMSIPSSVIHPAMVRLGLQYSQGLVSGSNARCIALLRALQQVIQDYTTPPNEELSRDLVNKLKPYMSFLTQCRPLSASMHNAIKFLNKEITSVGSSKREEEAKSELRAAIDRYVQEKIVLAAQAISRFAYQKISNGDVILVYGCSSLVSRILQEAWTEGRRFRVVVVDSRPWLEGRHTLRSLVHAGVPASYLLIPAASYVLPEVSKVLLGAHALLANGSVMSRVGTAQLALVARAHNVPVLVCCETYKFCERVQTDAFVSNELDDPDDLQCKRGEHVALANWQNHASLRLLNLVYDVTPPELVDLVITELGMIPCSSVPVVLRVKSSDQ
T2 sequence (Q9NR50 whole entry partner, one chain of several): as the sequence (Q9NR50 whole entry partner, one chain of several) above
T2 sequence (Q13144 whole entry partner, one chain of several): as the sequence (Q13144 whole entry partner, one chain of several) above

`Nc1nc2c(ncn2[C@@H]2O[C@H](COP(=O)(O)O)[C@@H](O)[C@H]2O)c(=O)[nH]1` [GMP]: the “binding to C. thermophilum eIF2Bα” value in [1] is recorded as “binding”. The “Tm of eIF2Bα” value on eIF2Bα (0.33 mM metabolite) is 65.0444 °C and 64.6931 °C and 64.6421 °C and 63.969 °C; at eIF2Bα (1 mM metabolite), 65.9427 °C and 65.8956 °C and 65.7456 °C and 64.3903 °C; on eIF2Bα (3.3 mM metabolite), 65.9427 °C and 65.7951 °C and 65.7602 °C and 64.8164 °C; at eIF2Bα (10 mM metabolite), 66.5064 °C and 66.3635 °C and 66.1504 °C and 64.9333 °C.
Turning to `O=C(COc1ccc(Cl)cc1)NC1CCC(NC(=O)COc2ccc(Cl)cc2)CC1` (centres unmarked) [ISRIB, reference compound], the “complex formation in the presence of eIF2Bα” value in experiment [2] was “enhanced formation”. The “complex formation in the absence of eIF2Bα” value in experiment [3] is given as “enhanced formation of an (βδγε)2 octamer”. Also, the “co-immunoprecipitation of phospho-eIF2α with FLAG-tagged eIF2B” value in experiment [4] is on record as “significantly disrupted”. Besides, in experiment [5], the “effect on GEF activity of WT lysate” value is “stimulated”. The eIF2B decamer formation entry is on record as “produced a shift to the decameric form” in experiment [6] and “promoted decamer formation at comparable levels” in [9]. In addition, the “effect on GEF activity of eIF2Bα E198K lysate” value in experiment [7] was “boosted”. Further, the “monomer-to-dimer shift of eIF2Bα V183F” value on eIF2Bα^V183F is listed as “had no effect”. In experiment [8], the “eIF2B decamer formation (migration of eIF2Bα and eIF2Bδ)” value was “formation of the decameric holoenzyme”.

The values above are taken from paper PMC8187479, “Sugar phosphate activation of the stress sensor eIF2B” (Nature Communications, 2021).
